From patent US20240123079A1 (Seagen Inc., priority 2021, published 2024)

test system: THP1-Dual™ reporter cells; experiment: THP1-Dual cell reporter assay (IRF-Lucia luciferase reporter); assay type: cell-based, human; details: ADCs: drug linker conjugated to a targeted mAb, 48 h
Protocol: THP1-Dual™ Cell Reporter Assay
Potency of compounds and ADCs was evaluated using the THP1-Dual™ cells (InvivoGen PN: thpd-nfis [also referred to as THP1 dual reporter cells]), which contain an IRF-Lucia luciferase reporter. Cells were cultured in RPMI-1640 (Gibco) with 10% heat-inactivated fetal bovine serum, Pen-Strep (100 U/mL-100 μg/mL, Gibco), HEPES (10 mM, Gibco)), sodium pyruvate (1 mM, Gibco), MEM non-essential amino acids (1×, Gibco), GlutaMAX (1×, Gibco), and beta-mercaptoethanol (55 μM, Gibco). Cells were plated in a 96-well flat bottom tissue culture-treated clear polystyrene plate (Corning Costar #3596) at ˜100,000 cells per well in 200 μL with the indicated concentration of the compound or ADC. The supernatant was harvested at 24 hours (compounds) or 48 hours (ADC) post plating for the reporter assay, or as indicated. To measure Lucia reporter signal, 10 μL of the supernatant was combined with 40 μL of QUANTI-Luc™ Luminescence assay reagent (Invivogen PN: rep-qlc1) in a 96-well clear flat bottom tissue culture-treated black polystyrene plate (Corning Costar #3603) and read on a Perkin Elmer Envision plate reader.
STING agonist compounds were assessed for their ability to activate THP1-Dual™ reporter cells, a human monocytic cell line in which type I interferon (IRF) signaling can be monitored via a secreted luciferase reporter protein (Lucia). THP1-Dual™ cells were treated with increasing concentrations of the agonists for 24h, then supernatants were harvested and the Lucia reporter signal was quantified using QUANTI-Luc™ Luminescence assay reagent.

Q: Which “EC50 (ng/mL)” value does the source give for `CCn1cc(C)nc1C(=O)Nc1nc2cc(C(N)=O)cc(OCCCN(C)C(=O)CCN3C(=O)C=CC3=O)c2n1C/C=C/Cn1c(NC(=O)c2cc(C)nn2CC)nc2cc(C(N)=O)cc(OC)c21` [Compound 103] here?
A: >10,000 ng/mL

Q: How did the “EC50 (ng/mL)” value turn out when `CCn1nc(C)cc1C(=O)Nc1nc2cc(C(=O)OC)cc(OC)c2n1C/C=C/Cn1c(NC(=O)c2cc(C)nn2CC)nc2cc(C(=O)OC)cc(OCCCN(C)C(=O)CCN3C(=O)C=CC3=O)c21` [Compound 66, methyl (E)-7-(3-(3-(2,5-dioxo-2,5-dihydro-1H-pyrrol-1-yl)-N-methylpropanamido)propoxy)-2-(1-ethyl-3-methyl-1H-pyrazole-5-carboxamido)-1-(4-(2-(1-ethyl-3-methyl-1H-pyrazole-5-carboxamido)-7-methoxy-5-(methoxycarbonyl)-1H-benzo[d]imidazol-1-yl)but-2-en-1-yl)-1H-benzo[d]imidazole-5-carboxylate] was run?
A: >10,000 ng/mL

Q: Which “EC50 (ng/mL)” value does the source give for `CCn1nc(C)cc1C(=O)Nc1nc2cc(C(=O)O)cc(OC)c2n1C/C=C/Cn1c(NC(=O)c2cc(C)nn2CC)nc2cc(C(=O)O)cc(OCCCN(C)C(=O)CCN3C(=O)C=CC3=O)c21` [Compound 68, (E)-1-(4-(5-carboxy-2-(1-ethyl-3-methyl-1H-pyrazole-5-carboxamido)-7-methoxy-1H-benzo[d]imidazol-1-yl)but-2-en-1-yl)-7-(3-(3-(2,5-dioxo-2,5-dihydro-1H-pyrrol-1-yl)-N-methylpropanamido)propoxy)-2-(1-ethyl-3-methyl-1H-pyrazole-5-carboxamido)-1H-benzo[d]imidazole-5-carboxylic acid] here?
A: >10,000 ng/mL

Q: For `CCn1nc(C)cc1C(=O)Nc1nc2cc(C(N)=O)cc(OC)c2n1C/C=C/Cn1c(NC(=O)c2cc(C)nn2CC)nc2cc(C(N)=O)cc(OCCCOC3CN(C(=O)CCN4C(=O)C=CC4=O)C3)c21` [Compound 27, (E)-1-(4-(5-carbamoyl-2-(1-ethyl-3-methyl-1H-pyrazole-5-carboxamido)-7-methoxy-1H-benzo[d]imidazol-1-yl)but-2-en-1-yl)-7-(3-((1-(3-(2,5-dioxo-2,5-dihydro-1H-pyrrol-1-yl)propanoyl)azetidin-3-yl)oxy)propoxy)-2-(1-ethyl-3-methyl-1H-pyrazole-5-carboxamido)-1H-benzo[d]imidazole-5-carboxamide], which “EC50” value is on record?
A: 0.0104 µg/mL

Q: For `CCn1nc(C)cc1C(=O)Nc1nc2cc(S(N)(=O)=O)ccc2n1C/C=C/Cn1c(NC(=O)c2cc(C)nn2C)nc2cc(C(N)=O)cc(OCCCN(C)C(=O)CCN3C(=O)C=CC3=O)c21` [Compound 148, (E)-2-(1,3-dimethyl-1H-pyrazole-5-carboxamido)-7-(3-(3-(2,5-dioxo-2,5-dihydro-1H-pyrrol-1-yl)-N-methylpropanamido)propoxy)-1-(4-(2-(1-ethyl-3-methyl-1H-pyrazole-5-carboxamido)-5-sulfamoyl-1H-benzo[d]imidazol-1-yl)but-2-en-1-yl)-1H-benzo[d]imidazole-5-carboxamide], which “EC50 (ng/mL)” value is on record?
A: >10,000 ng/mL

Q: How did the “EC50” value turn out when `CCn1nc(C)cc1C(=O)Nc1nc2cc(C(N)=O)cc(OC)c2n1C/C=C/Cn1c(NC(=O)c2ccnn2CC)nc2cc(C(N)=O)cc(OCCCN(C)C(=O)CCN3C(=O)C=CC3=O)c21` [Compound 108] was run?
A: 0.0635 µg/mL

Q: Which “EC50” value does the source give for `CCn1nc(C)cc1C(=O)Nc1nc2cc(C(N)=O)cc(OC)c2n1C/C=C/Cn1c(NC(=O)c2cc(C)nn2CC)nc2cc(C(N)=O)cc(OCCCN(C)C(=O)[C@H](Cc3ccc(OC)cc3)NC(=O)CCN3C(=O)C=CC3=O)c21` [Compound 124] here?
A: 0.0091 µg/mL

Q: Which “EC50 (ng/mL)” value does the source give for `CCn1nc(C)cc1C(=O)Nc1nc2cc(C(N)=O)cc(OC)c2n1C/C=C/Cn1c(NC(=O)c2ccnnc2)nc2cc(C(N)=O)cc(OCCCN(C)C(=O)CCN3C(=O)C=CC3=O)c21` [Compound 98] here?
A: >10,000 ng/mL

Q: `CCn1nc(C)cc1C(=O)Nc1nc2cc(C(N)=O)cc(OC)c2n1C/C=C/Cn1c(NC(=O)c2c(C)cnn2C)nc2cc(C(N)=O)cc(OCCCN(C)C(=O)CCN3C(=O)C=CC3=O)c21` [Compound 110] was tested. Which “EC50 (ng/mL)” value did it give?
A: >10,000 ng/mL

same assay, conditions: Homo sapiens, THP1-Dual; free compounds, 24 h, Lucia reporter signal; read-out: EC50

Q: With `CCn1nc(C)cc1C(=O)Nc1nc2cc(S(N)(=O)=O)ccc2n1C/C=C/Cn1c(NC(=O)c2cc(C)nn2CC)nc2cc(C(N)=O)cc(OCCC3CNC3)c21` [Compound 135, (E)-7-(2-(azetidin-3-yl)ethoxy)-2-(1-ethyl-3-methyl-1H-pyrazole-5-carboxamido)-1-(4-(2-(1-ethyl-3-methyl-1H-pyrazole-5-carboxamido)-5-sulfamoyl-1H-benzo[d]imidazol-1-yl)but-2-en-1-yl)-1H-benzo[d]imidazole-5-carboxamide] as the compound, how does the EC50 read?
A: 2010 nM

Q: For `COc1cc(C(N)=O)cc2nc(NC(=O)c3ncccn3)n(C/C=C/Cn3c(NC(=O)c4ncccn4)nc4cc(C(N)=O)cc(O)c43)c12` [Compound 44], which EC50 is on record?
A: > 10000 nM

Q: With `CCn1nc(C)cc1C(=O)Nc1nc2cc(C(N)=O)ccc2n1C/C=C/Cn1c(NC(=O)c2cc(C)nn2CC)nc2cc(C(N)=O)cc(OCCCN(C)C(=O)CCCCCN3C(=O)CC(SC[C@H](N)C(=O)O)C3=O)c21` (stereo partly drawn) [Compound 132, S-(1-(6-((3-((5-carbamoyl-1-((E)-4-(5-carbamoyl-2-(1-ethyl-3-methyl-1H-pyrazole-5-carboxamido)-1H-benzo[d]imidazol-1-yl)but-2-en-1-yl)-2-(1-ethyl-3-methyl-1H-pyrazole-5-carboxamido)-1H-benzo[d]imidazol-7-yl)oxy)propyl)(methyl)amino)-6-oxohexyl)-2,5-dioxopyrrolidin-3-yl)-L-cysteine] as the compound, how does the EC50 read?
A: 37.4 nM

Q: `CCn1nc(C)cc1C(=O)Nc1nc2cc(C(N)=O)cc(OC)c2n1C/C=C/Cn1c(NC(=O)c2c(C)cnn2C)nc2cc(C(N)=O)cc(OCCCNC)c21` [Compound 93] was tested. Which EC50 did it give?
A: > 10000 nM

Q: For `CCn1nc(C)cc1C(=O)Nc1nc2cc(S(N)(=O)=O)ccc2n1C/C=C/Cn1c(NC(=O)c2cc(C)nn2C)nc2cc(C(N)=O)cc(OCCCOC3CNC3)c21` [Compound 138], which EC50 is on record?
A: > 5000 nM

Q: Which EC50 does the source give for `CCn1cccc1C(=O)Nc1nc2cc(C(N)=O)cc(O)c2n1C/C=C/Cn1c(NC(=O)c2cccn2CC)nc2cc(C(N)=O)cc(OC)c21` [Compound 41] here?
A: > 10000 nM

Q: Which EC50 does the source give for `CCn1nc(C)cc1C(=O)Nc1nc2cc(C(N)=O)cc(OC)c2n1C/C=C/Cn1c(NC(=O)c2cc(C)nn2C)nc2cc(C(N)=O)cc(OCCCNC)c21` [Compound 88] here?
A: 394 nM

Q: How did the EC50 turn out when `CCn1nc(C)cc1C(=O)Nc1nc2cc(C(N)=O)cc(OC)c2n1C/C=C/Cn1c(NC(=O)c2cc(C)no2)nc2cc(C(N)=O)cc(OCCCNC)c21` [Compound 82] was run?
A: > 10000 nM

Q: How did the EC50 turn out when `CCn1nc(C)cc1C(=O)Nc1nc2cc(C(N)=O)cc(OC)c2n1C/C=C/Cn1c(NC(=O)c2cc(C)nn2CC)nc2cc(C(N)=O)cc(OCCC3CNC3)c21` [Compound 26f] was run?
A: 69 nM

Q: For `CCn1nc(C)cc1C(=O)Nc1nc2cc(S(=O)(=O)NC)ccc2n1C/C=C/Cn1c(NC(=O)c2cc(C)nn2CC)nc2cc(C(N)=O)cc(OCCCN(C)C(=O)OC(C)(C)C)c21` [Compound 127, tert-butyl (E)-(3-((5-carbamoyl-2-(1-ethyl-3-methyl-1H-pyrazole-5-carboxamido)-1-(4-(2-(1-ethyl-3-methyl-1H-pyrazole-5-carboxamido)-5-(N-methylsulfamoyl)-1H-benzo[d]imidazol-1-yl)but-2-en-1-yl)-1H-benzo[d]imidazol-7-yl)oxy)propyl)(methyl)carbamate], which EC50 is on record?
A: 301 nM

Q: For `COc1cc(C(N)=O)cc2nc(NC(=O)c3cccs3)n(C/C=C/Cn3c(NC(=O)c4cccs4)nc4cc(C(N)=O)cc(O)c43)c12` [Compound 35], which EC50 is on record?
A: > 10000 nM

Q: `COc1cc(C(N)=O)cc2nc(NC(=O)c3cnccn3)n(C/C=C/Cn3c(NC(=O)c4cnccn4)nc4cc(C(N)=O)cc(O)c43)c12` [Compound 46] was tested. Which EC50 did it give?
A: > 10000 nM

Q: `CCn1nc(C)cc1C(=O)Nc1nc2cc(C(N)=O)cc(OC)c2n1C/C=C/Cn1c(NC(=O)c2cc(C)nn2CC)nc2cc(C(N)=O)cc(OCCCOC3CNC3)c21` [Compound 27f] was tested. Which EC50 did it give?
A: 38 nM

Q: With `CCn1nc(C)cc1C(=O)Nc1nc2cc(C(N)=O)cc(OC)c2n1C/C=C/Cn1c(NC(=O)c2cc(C(F)(F)F)nn2CC)nc2cc(C(N)=O)cc(OCCCNC)c21` [Compound 92] as the compound, how does the EC50 read?
A: 1190 nM

Q: For `CCc1nc(C)oc1C(=O)Nc1nc2cc(C(N)=O)cc(OCCCOC3CNC3)c2n1C/C=C/Cn1c(NC(=O)c2cc(C)nn2CC)nc2cc(C(N)=O)cc(OC)c21` [Compound 143, (E)-N-(7-(3-(azetidin-3-yloxy)propoxy)-5-carbamoyl-1-(4-(5-carbamoyl-2-(1-ethyl-3-methyl-1H-pyrazole-5-carboxamido)-7-methoxy-1H-benzo[d]imidazol-1-yl)but-2-en-1-yl)-1H-benzo[d]imidazol-2-yl)-4-ethyl-2-methyloxazole-5-carboxamide], which EC50 is on record?
A: 155 nM

Q: With `CCn1nc(C(=O)Nc2nc3cc(C(N)=O)cc(O)c3n2C/C=C/Cn2c(NC(=O)c3cc(C)n(CC)n3)nc3cc(C(N)=O)cc(OC)c32)cc1C` [Compound 32] as the compound, how does the EC50 read?
A: 44.5 nM

Q: With `COc1cc(C(N)=O)cc2nc(NC(=O)c3ccno3)n(C/C=C/Cn3c(NC(=O)c4ccno4)nc4cc(C(N)=O)cc(O)c43)c12` [Compound 59] as the compound, how does the EC50 read?
A: > 10000 nM

same assay, conditions: free compounds, 24 h, Lucia reporter signal; read-out: EC50

Q: Which EC50 does the source give for `CCn1nc(C)cc1C(=O)Nc1nc2cc(C(N)=O)cc(OC)c2n1C/C=C/Cn1c(NC(=O)c2cc(C)nn2CC)nc2cc(C(N)=O)cc(OCCCOC3CN(C(=O)OC(C)(C)C)C3)c21` [Compound 27e] here?
A: 1.3 nM
